Measured values as given in patent publication EP0005541A2, “Substituted piperidine, morpholine or piperidone derivatives, fungicides containing these compounds, process for their preparation and their use, and the use of these compounds as fungicides” (F. HOFFMANN-LA ROCHE & CO. Aktiengesellschaft, priority 1978, dated 1979).

How the values were obtained:
Format in all cases: in vivo
Venturia inaequalis = Venturia inaequalis protective spray test on apple seedlings; settings: infected 2 days after spraying, read on day 13 after infection vs infected untreated control
Protocol: 3 Apfelpflänzchen (verteilt auf 3 Töpfe mit 5 cm Durchmesser) aus Samen der Sorte GOLDIN DELICIOUS wurden im 4- bis 5-Blattstadium mit einer wässerigen Dispersion der Testsubstanz (wie allgemein üblich aufbereitet als Spritzpulver) allseitig gründlich besprüht. Die behandelten Pflanzen wurden anschliessend während 2 Tagen bei 17°C, 70-80%rel. Luftfeuchtigkeit und einer Photoperiode von 14 Stunden weiterkultiviert. Danach erfolgte die Infektion der Apfelsämlinge durch Besprühen mit in dest. Wasser suspendierten Konidien (200'000 Konidien/ml) von Venturia inaequalis. Nach der Infektion wurden die Pflanzen im Dunkeln während 48 Stunden bei 16-18°C und einer rel. Luftfeuchtigkeit von über 90% inkubiert und anschliessend in ein schattiertes Gewächshaus mit einer Temperatur von 22-26 °C und einer rel. Luftfeuchtigkeit von über 80% überführt. Am 13. Tage nach der Infektion erfolgte die Ermittlung der durch Venturia inaequalis befallenen Blattfläche gegenüber der infizierten, nicht behandelten Kontrolle. Die Resultate sind in Tabelle II zusammengefasst.

Erysiphe graminis = Erysiphe graminis protective spray test on barley seedlings (greenhouse); settings: barley seedlings HERTA, infected 2 days after spraying, read 7 days after infection vs infected untreated control
Protocol: 30-40 Gerstenkeimlinge der Sorte HERTA (verteilt auf 2 Töpfe mit 7 cm Durchmesser) wurden jeweils im Einblattstadium mit einer wässerigen Dispersion der Testsubstanz (wie allgemein üblich aufbereitet als Spritzpulver) allseitig gründlich besprüht und anschliessend bei 22-26°C, 80% rel. Luftfeuchtigkeit und einer Photoperiode von 16 Stunden im Gewächshaus weiterkultiviert. Die Infektion erfolgte 2 Tage nach der Behandlung durch Bestäuben der Versuchspflanzen mit Kon dien von Erysiphe graminis. 7 Tage nach der Infektion wurde ::ie durch Erysiphe graminis befallene Blattfläche in % gegenüber derjenigen der infizierten, nicht behandelten Kontrolle ermittelt. Die Resultate sind in Tabelle I zusammengefasst.

Puccinia coronata = Puccinia coronata protective spray test on oat seedlings; settings: oat seedlings FLAEMINGSKRONE, infected 2 days after spraying, read on day 9 after infection vs infected untreated control
Protocol: 30-40 Haferkeimlinge der Sorte FLAEMINGSKRONE (verteilt auf 2 Töpfe mit 7 cm Durchmesser) wurden jeweils im Einblattstadium mit einer wässerigen Dispersion der Testsubstanz (wie allgemein üblich aufbereitet als Spritzpulver) allseitig gründlich besprüht und anschliessend in einer Klimakabine bei 17°C. 70-80% rel. Luftfeuchtigkeit und einer Photoperiode von 16 Stunden weiterkultiviert. Nach 2 Tagen erfolgte die Infektion der Versuchspflanzen durch Besprühen mit in dest. Wasser suspendierten Uredosporen (300'000 Sporen/ml) vor. Puccinia coronata. Danach wurden die Pflanzen während 24 Stunden bei 20°C und einer Luftfeuchtigkeit von über 90W im Dunkeln inkubiert und anschliessend in ein Gewächshaus mit einer Temperatur von 22-26 °C, einer rel. Luftfeuchtigkeit von 70% und einer Photoperiode von 18 Stunden übe führt. Am 9. Tage nach der Infektion wurde die durch Pucrinia coronata befallene Blattfläche in % gegenüber der infizierten, nicht behandelten Kontrolle ermittelt. Die ResLltate sind in Tabelle I zusammengefasst.

Structure (SMILES) | Wirkung (in %) Venturia inaequalis (Venturia inaequalis; 5 mg/l Spritzbrühe) [%] | Wirkung (in %) Venturia inaequalis (Venturia inaequalis; 16 mg/l Spritzbrühe) [%] | Wirkung (in %) Venturia inaequalis (Venturia inaequalis; 50 mg/l Spritzbrühe) [%] | Wirkung (in %) Venturia inaequalis (Venturia inaequalis; 160 mg/l Spritzbrühe) [%] | Wirkung (in %) Venturia inaequalis (Venturia inaequalis; 500 mg/l Spritzbrühe) [%] | Wirkung (in %) Erysiphe graminis (Erysiphe graminis; 5 mg/l Spritzbrühe) [%] | Wirkung (in %) Erysiphe graminis (Erysiphe graminis; 16 mg/l Spritzbrühe) [%] | Wirkung (in %) Erysiphe graminis (Erysiphe graminis; 50 mg/l Spritzbrühe) [%] | Wirkung (in %) Erysiphe graminis (Erysiphe graminis; 160 mg/l Spritzbrühe) [%] | Wirkung (in %) Erysiphe graminis (Erysiphe graminis; 500 mg/l Spritzbrühe) [%] | Wirkung (in %) Puccinia coronata (Puccinia coronata; 5 mg/l Spritzbrühe) [%] | Wirkung (in %) Puccinia coronata (Puccinia coronata; 16 mg/l Spritzbrühe) [%] | Wirkung (in %) Puccinia coronata (Puccinia coronata; 50 mg/l Spritzbrühe) [%] | Wirkung (in %) Puccinia coronata (Puccinia coronata; 160 mg/l Spritzbrühe) [%] | Wirkung (in %) Puccinia coronata (Puccinia coronata; 500 mg/l Spritzbrühe) [%]
CC(Cc1ccc(C(C)(C)CCl)cc1)CN1CC(C)CC(C)C1 (stereo not shown) [1-/3-[p-(2-Chlor-1,1-dimethyl-äthyl)-phenyl]-2-methyl-propyl/-3,5-dimethyl-piperidin] | 20 | 33 | 77 | 87 | 99 | 85 | 92 | 100 | 100 | 100 | 40 | 98 | 100 | 100 | 100
CC(CN1CCC2(CC1)OCCO2)=C(C)c1ccc(C(C)(C)C)cc1 [1-[3-(p-tert.-Butyl-phenyl)-2,3-dimethyl-2-propenyl]-4,4-äthylendioxy-piperidin] | 0 | 0 | 20 | 37 | 83 | 80 | 98 | 98 | 100 | 100 | 98 | 100 | 100 | 100 | 100
CC(Cc1ccc(C(C)(C)C)cc1)CN1CCC(=O)CC1 (stereo not shown) [1-[3-(p-tert.-Butyl-phenyl)-2-methyl-propyl]-4-piperidon] | 0 | 0 | 0 | 10 | 90 | 75 | 80 | 93 | 100 |  | 0 | 0 | 0 | 0 | 98
CC(CN1CCC(=O)CC1)=C(C)c1ccc(C(C)(C)C)cc1 [1-[3-(p-tert.-Butyl-phenyl)-2,3-dimethyl-2-propenyl]-4-piperidon] | 0 | 10 | 20 | 37 | 83 | 0 | 60 | 100 | 100 | 100 | 0 | 25 | 100 | 100 | 100
CCC(C)(C)c1ccc(CC(C)CN2CCC3(CC2)OCCO3)cc1 (stereo not shown) [1-[3-(p-tert.-Amyl-phenyl)-2-methyl-propyl]-4,4-äthylendioxy-piperidin] | 0 | 40 | 63 | 97 | 98 | 75 | 85 | 90 | 100 | 100 | 10 | 30 | 90 | 100 | 100
CC(Cc1ccc(C(C)(C)CCl)cc1)CN1CC(C)OC(C)C1 (stereo not shown) [4-/3-[p-(2-Chlor-1,1-dimethyl-äthyl)-phenyl]-2-methyl-propyl/-2,6-dimethyl-morpholin] | 13 | 67 | 93 | 95 | 95 | 60 | 75 | 90 | 100 | 100 | 0 | 0 | 20 | 100 | 
CC(CN1CCCCC1)C(O)c1ccc(C(C)(C)C)cc1 (stereo not drawn) [α-(p-tert.-Butyl-phenyl)-β-methyl-1-piperidin-propanol] | 10 | 20 | 43 | 93 | 100 | 75 | 80 | 87 | 98 | 98 | 10 | 30 | 80 | 100 | 100
CCC(C)(C)c1ccc(C(C)=C(C)CN2CCC3(CC2)OCCO3)cc1 [1-[3-(p-tert.-Amyl-phenyl)-2,3-dimethyl-2-propenyl]-4,4-äthylendioxy-piperidin] | 0 | 0 | 10 | 10 | 95 | 75 | 90 | 90 | 98 |  | 20 | 98 | 100 | 100 | 100
CC(Cc1ccc(C(C)(C)C)cc1)CN1CCC2(CC1)OCCO2 (stereo not shown) [1-[3-(p-tert.-Butyl-phenyl)-2-methyl-propyl]-4,4-äthylendioxy-piperidin] |  |  |  |  | 20 | 30 | 50 | 70 | 85 |  | 90 | 95 | 100 | 100 | 100
CC(Cc1ccc(C(C)(C)CCl)cc1)CN1CCCCC1 (stereo not shown) [1-/3-[p-(2-Chlor-1,1-dimethyl-äthyl)-phenyl]-2-methyl-propyl/-piperidin] | 0 | 20 | 30 | 90 | 95 | 45 | 70 | 80 | 97 | 100 | 30 | 65 | 85 | 100 | 100
